Laboratory results as given in patent publication US10280170B2, “Substituted 4,5,6,7-tetrahydro-pyrazolo[1,5-a]pyrazine derivatives and 5,6,7,8-tetrahydro-4H-pyrazolo[1,5-a][1,4]diazepine derivatives as Ros1 inhibitors” (Janssen Pharmaceutica NV, priority 2014, dated 2019).
Read-outs that look alike come from different tables or passages of the source.

Columns and labels:
[1] = target: T1, Ba/F3 cells containing Ros1 wild-type protein (Homo sapiens, UniProt P08922, cells depend on it, form not given); experiment: Ba/F3-Ros1 cell proliferation assay, wild-type Ros1; format: cell-based, murine; settings: without IL-3
T1 construct: The background only speaks of 'a number of different unrelated proteins' and names SLC34A2-ROS1 for HCC78 cells
Protocol: (§1) Ba/F3-Ros1 Cell Proliferation Assay
(§2) This assay was carried out with Ba/F3 cells containing three different versions of Ros1: the wild-type protein, protein with a mutation at the gatekeeper residue (L2026M), and protein with a mutation identified in a tumor from a patient that became resistant to crizotinib (Xalkori®) treatment (G2032R). Compounds were solubilized in 100% DMSO (dimethyl sulfoxide) and sprayed into polystyrene, tissue culture treated 384-well plates. A 50 μl volume of cell culture medium (phenol red free RPMI-1640, 10% FBS (fetal bovine serum), 2 mM L-Glutamine) containing 20000 Ba/F3-Ros1 cells was added to each well and the plates were placed in an incubator at 37° C. and 5% CO2. After 24 hours, 10 μl of Alamar Blue solution (0.5 mM K3Fe(CN)6, 0.5 mM K4Fe(CN)6, 0.15 mM Resazurin and 100 mM Phosphate Buffer) was added to the wells, incubated for 4 hours at 37° C. and 5% CO2 before RFU's (Relative Fluorescence Units) (ex. 540 nm., em. 590 nm.) were measured in a fluorescence plate reader.

Ros1 enzyme = target: T2, Ros1 enzyme (Homo sapiens, UniProt P08922); experiment: Ros1 enzymatic assay; format: biochemical; settings: Ros1 enzymatic assay; for IC50: read-out: ROS1 pIC50 (converted)
T2 construct: 0.5 μg/ml Ros1 enzyme
Protocol: Compounds were spotted onto white 384-well Proxiplate plus plates (Perkin Elmer) to which 5 μl of enzyme mix (0.5 μg/ml Ros1 enzyme, 50 mM Tris-HCl pH7.5, 1 mM EGTA, 10 mM MgCl2, 0.01% Tween-20) and 5 μl of substrate mix (6 μg/ml IRS-Tide [American Peptide Company], 20 μM ATP, 13.33 μCi/ml ATP (adenosine 5′-triphosphate) P^33, 50 mM Tris-HCl pH7.5, 1 mM EGTA (ethylene glycol-bis(2-aminoethylether)-N,N,N′,N′-tetraacetic acid), 10 mM MgCl2, 0.01% Tween-20) were added. After incubation for 120 minutes at room temperature, 10 μl of stop reaction buffer (5 mM EDTA, 50 μM ATP, 0.1% BSA (bovine serum albumin), 0.1% Triton X-100, 50 mM Tris-HCl pH7.5, 1 mM EGTA, 10 mM MgCl2, 0.01% Tween-20) containing 2 mg/ml streptavidin coupled polystyrene imaging beads (Amersham Biosciences) was added and incubated for 15 minutes at room temperature. Plates were centrifuged for 3 minutes at 1500 rpm and signals detected in a LEADseeker imaging system (GE).

[2] = system: Ba/F3 cells containing Ros1 wild-type protein + IL-3; experiment: Ba/F3-Ros1 cell proliferation counter-screen, wild-type protein in the presence of 10 ng/ml murine IL-3; format: cell-based; settings: Mus musculus, BaF3, 24 h, read-out: BaF3-ROS1 + IL3 pIC50 (converted)
Protocol: as §2
As a counter-screen the same experiment was performed for the wild-type protein in the presence of 10 ng/ml murine IL-3.

[3] = target: Ba/F3 cells containing Ros1 with a mutation at the gatekeeper residue (L2026M) (Homo sapiens, UniProt P08922, L2026M, cells depend on it, form not given); experiment: Ba/F3-Ros1 cell proliferation assay, L2026M gatekeeper mutant; format: cell-based, murine; settings: without IL-3
Protocol: as §1, §2

[4] = counter-screen, wild-type, 10 ng/ml murine IL-3

T2 sequence (P08922 28-2347): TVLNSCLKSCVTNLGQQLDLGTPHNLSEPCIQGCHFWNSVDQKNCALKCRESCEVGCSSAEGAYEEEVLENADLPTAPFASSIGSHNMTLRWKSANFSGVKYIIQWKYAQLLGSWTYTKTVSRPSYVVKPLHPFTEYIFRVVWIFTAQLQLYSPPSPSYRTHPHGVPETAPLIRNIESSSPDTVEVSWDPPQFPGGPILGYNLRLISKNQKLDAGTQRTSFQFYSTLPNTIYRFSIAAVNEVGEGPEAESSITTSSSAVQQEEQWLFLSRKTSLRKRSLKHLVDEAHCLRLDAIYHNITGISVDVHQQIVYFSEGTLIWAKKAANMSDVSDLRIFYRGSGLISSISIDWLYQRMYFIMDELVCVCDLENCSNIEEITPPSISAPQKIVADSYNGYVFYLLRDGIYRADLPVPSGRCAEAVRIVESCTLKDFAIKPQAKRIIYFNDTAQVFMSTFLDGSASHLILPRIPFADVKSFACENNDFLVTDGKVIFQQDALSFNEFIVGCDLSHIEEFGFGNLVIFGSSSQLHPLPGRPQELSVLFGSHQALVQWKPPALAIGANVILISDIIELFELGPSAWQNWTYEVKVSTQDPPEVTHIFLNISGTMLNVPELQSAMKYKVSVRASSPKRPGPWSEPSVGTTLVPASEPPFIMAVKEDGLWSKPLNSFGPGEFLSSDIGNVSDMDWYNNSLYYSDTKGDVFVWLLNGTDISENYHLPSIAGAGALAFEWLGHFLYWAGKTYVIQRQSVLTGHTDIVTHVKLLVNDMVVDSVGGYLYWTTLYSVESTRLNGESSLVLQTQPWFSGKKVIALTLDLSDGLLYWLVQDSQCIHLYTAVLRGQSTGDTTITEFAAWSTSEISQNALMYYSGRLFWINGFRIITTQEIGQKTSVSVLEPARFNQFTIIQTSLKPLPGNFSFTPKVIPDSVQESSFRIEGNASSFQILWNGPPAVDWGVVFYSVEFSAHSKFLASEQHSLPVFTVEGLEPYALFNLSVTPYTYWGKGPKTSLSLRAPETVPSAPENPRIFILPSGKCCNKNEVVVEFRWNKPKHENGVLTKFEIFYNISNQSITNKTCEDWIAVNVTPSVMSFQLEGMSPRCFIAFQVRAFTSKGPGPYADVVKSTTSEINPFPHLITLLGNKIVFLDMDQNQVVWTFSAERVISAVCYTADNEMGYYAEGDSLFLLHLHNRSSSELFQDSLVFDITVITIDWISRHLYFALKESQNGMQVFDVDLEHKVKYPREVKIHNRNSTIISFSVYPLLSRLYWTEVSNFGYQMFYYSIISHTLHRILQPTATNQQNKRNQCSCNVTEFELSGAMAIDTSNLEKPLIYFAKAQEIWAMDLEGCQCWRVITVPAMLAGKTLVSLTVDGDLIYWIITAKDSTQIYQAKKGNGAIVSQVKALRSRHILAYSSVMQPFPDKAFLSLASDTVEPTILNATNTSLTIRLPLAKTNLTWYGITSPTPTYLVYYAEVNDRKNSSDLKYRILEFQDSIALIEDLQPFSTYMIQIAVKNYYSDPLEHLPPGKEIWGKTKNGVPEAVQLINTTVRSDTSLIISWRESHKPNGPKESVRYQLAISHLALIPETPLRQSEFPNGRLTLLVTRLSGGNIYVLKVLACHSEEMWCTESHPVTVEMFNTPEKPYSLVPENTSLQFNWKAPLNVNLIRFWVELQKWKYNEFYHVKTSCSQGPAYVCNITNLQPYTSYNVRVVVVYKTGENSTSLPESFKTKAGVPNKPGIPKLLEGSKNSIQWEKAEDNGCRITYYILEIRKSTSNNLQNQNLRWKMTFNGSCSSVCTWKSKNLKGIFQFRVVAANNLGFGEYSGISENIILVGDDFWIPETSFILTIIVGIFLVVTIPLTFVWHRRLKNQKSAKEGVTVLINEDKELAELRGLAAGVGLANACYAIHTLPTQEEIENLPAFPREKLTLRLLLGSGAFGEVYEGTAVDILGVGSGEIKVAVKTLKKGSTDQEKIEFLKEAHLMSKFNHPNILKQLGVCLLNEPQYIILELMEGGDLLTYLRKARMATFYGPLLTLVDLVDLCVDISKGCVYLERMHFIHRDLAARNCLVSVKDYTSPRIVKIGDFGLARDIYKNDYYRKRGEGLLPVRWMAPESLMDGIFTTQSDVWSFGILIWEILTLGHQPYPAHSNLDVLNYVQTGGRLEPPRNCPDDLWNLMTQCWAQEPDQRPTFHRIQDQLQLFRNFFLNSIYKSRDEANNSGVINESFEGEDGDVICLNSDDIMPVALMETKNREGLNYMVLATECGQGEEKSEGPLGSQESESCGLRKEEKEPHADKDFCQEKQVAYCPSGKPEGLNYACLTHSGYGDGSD
T1 sequence (P08922 whole entry, stated change not applied): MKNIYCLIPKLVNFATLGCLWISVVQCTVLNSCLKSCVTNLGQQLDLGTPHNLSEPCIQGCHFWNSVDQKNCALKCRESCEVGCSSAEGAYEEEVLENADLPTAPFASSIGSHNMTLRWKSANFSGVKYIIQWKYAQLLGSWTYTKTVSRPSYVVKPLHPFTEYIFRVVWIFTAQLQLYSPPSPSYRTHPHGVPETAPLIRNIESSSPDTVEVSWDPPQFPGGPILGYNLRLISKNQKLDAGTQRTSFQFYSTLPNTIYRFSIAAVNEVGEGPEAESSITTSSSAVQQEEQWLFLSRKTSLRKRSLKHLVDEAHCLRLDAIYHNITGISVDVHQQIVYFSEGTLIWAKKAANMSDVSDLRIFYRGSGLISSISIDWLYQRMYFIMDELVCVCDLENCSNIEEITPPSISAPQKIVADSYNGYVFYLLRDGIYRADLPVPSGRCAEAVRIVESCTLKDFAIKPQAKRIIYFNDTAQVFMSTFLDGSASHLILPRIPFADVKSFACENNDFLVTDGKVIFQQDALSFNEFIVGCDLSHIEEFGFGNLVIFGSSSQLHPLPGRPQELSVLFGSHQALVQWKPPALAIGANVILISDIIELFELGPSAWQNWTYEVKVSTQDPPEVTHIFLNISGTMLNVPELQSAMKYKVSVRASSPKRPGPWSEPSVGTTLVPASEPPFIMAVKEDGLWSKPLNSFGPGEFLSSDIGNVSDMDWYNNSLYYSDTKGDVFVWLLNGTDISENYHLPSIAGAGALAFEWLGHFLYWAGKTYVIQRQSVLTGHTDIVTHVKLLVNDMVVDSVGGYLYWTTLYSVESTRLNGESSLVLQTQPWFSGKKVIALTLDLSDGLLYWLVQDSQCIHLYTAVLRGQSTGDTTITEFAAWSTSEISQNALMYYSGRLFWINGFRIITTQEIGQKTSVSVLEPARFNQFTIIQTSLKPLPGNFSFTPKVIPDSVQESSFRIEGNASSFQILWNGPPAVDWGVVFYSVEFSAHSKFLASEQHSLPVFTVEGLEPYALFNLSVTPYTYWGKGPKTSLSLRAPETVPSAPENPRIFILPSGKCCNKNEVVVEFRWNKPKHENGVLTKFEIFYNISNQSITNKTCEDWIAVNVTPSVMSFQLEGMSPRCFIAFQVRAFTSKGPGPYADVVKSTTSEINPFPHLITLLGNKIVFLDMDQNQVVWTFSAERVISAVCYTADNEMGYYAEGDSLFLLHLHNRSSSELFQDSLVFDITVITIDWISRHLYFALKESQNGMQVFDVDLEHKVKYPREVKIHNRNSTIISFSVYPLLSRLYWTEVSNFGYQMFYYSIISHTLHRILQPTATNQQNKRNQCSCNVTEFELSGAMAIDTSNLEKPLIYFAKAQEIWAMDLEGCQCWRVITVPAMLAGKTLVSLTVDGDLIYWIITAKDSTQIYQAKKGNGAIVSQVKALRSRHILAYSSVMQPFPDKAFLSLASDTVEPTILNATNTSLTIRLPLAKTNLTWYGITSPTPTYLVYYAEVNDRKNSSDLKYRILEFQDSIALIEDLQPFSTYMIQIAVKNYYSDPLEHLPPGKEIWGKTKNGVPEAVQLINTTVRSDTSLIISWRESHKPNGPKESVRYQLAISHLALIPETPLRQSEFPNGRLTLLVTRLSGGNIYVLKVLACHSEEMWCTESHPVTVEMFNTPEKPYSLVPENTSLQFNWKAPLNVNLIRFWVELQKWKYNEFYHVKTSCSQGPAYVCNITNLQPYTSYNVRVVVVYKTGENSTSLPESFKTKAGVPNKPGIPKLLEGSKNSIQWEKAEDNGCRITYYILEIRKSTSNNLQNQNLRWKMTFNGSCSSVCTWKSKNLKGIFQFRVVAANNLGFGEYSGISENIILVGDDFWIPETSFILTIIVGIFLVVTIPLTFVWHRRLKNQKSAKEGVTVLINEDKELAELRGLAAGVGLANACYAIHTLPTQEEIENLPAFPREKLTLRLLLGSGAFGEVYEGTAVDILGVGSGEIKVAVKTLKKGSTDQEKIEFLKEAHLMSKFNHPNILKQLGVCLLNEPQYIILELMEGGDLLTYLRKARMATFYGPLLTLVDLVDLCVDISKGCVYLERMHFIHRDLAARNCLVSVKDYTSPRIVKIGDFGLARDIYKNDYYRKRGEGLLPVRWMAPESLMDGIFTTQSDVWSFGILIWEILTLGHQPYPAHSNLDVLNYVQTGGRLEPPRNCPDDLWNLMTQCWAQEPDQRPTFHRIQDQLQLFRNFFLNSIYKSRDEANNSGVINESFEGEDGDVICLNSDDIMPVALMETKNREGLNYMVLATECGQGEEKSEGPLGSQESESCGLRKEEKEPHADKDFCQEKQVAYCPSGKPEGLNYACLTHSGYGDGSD
Ba/F3 cells containing Ros1 with a mutation at the gatekeeper residue (L2026M), sequence (P08922 whole entry L2026M, form open): as the sequence (P08922 whole entry, stated change not applied) above, with L2026M counted along it

Row | BaF3-ROS1-IL3 pIC50 [1] | IC50 (Ros1 enzyme) | ROS1 pIC50 (Ros1 enzyme) | SMILES | melting point | CC50 [2, 4] | CC50 [2] | Ba/F3 Ros1 L2026M (-IL-3) pIC50 [3]
1 | <5 | 2510 nM | – | COC(=O)c1ccc(COc2ccc(-c3c(-c4ccncc4)nn4c3C(=O)NCC4)cc2)cc1 [Compound 9a] | 254 °C | > 10000 nM | – | –
2 | 6.6 | – | 7.2 | CC(C)c1ccc(COc2ccc(-c3c(-c4ccncc4)nn4c3C(=O)N(CCN)CC4)cc2)cc1 [Compound 59a] | – | – | – | –
3 | 5.6 | > 10000 nM | – | NCc1cccc(COc2ccc(-c3c(-c4ccncc4)nn4c3C(=O)NCC4)cc2)c1 [Compound 133] | – | > 10000 nM | – | –
4 | 6.4 | 501 nM | – | CC(C)c1ccc(COc2ccc(-c3c(-c4ccncc4)nn4c3CN(CC(=O)N3CCCC3)CC4)cc2)cc1 [Compound 179] | – | > 10000 nM | – | –
5 | 6.5 | 501 nM | – | CC(O)C(=O)N1CCn2nc(-c3ccncc3)c(-c3ccc(OCc4ccc(C(C)C)cc4)cc3)c2C1 (stereo not drawn) [Compound 180] | – | > 10000 nM | – | –
6 | 5.7 | 1260 nM | – | CNCC(=O)N1CCn2nc(-c3ccncc3)c(-c3ccc(OCc4ccc(C(C)C)cc4)cc3)c2C1 [Compound 182] | – | 5010 nM | – | –
7 | 5.5 | 3980 nM | – | COc1ccc(COc2ccc(-c3c(-c4ccncc4)nn4c3CNCC4)cc2)cc1 [Compound 188] | – | > 10000 nM | – | –
8 | 6.1 | 631 nM | – | CC1Cn2nc(-c3ccncc3)c(-c3ccc(OCc4ccc(C5CC5)cc4)cc3)c2CN1 (stereo not drawn) [Compound 190] | – | > 10000 nM | – | –
9 | 6.5 | 501 nM | – | CC(C)c1ccc(COc2ccc(-c3c(-c4ccncn4)nn4c3CN(CCO)CC4)cc2)cc1 [Compound 220] | – | > 10000 nM | – | –
10 | 6.7 | 398 nM | – | CC(C)c1ccc(C2CNc3cc(-c4c(-c5ccncc5)nn5c4C(=O)NCC5)ccc3O2)cc1 (stereo not drawn) [Compound 224] | – | > 10000 nM | – | –
11 | 6.7 | 316 nM | – | CC(C)c1ccc(C2CNc3cc(-c4c(-c5ccncc5)nn5c4C(=O)NCC5)ccc3O2)cc1 (stereo not drawn) [Compound 225] | – | – | – | –

Row | SMILES | BaF3-ROS1-IL3 pIC50 [1] | IC50 (Ros1 enzyme) | ROS1 pIC50 (Ros1 enzyme) | melting point | CC50 [2, 4] | CC50 [2] | Ba/F3 Ros1 L2026M (-IL-3) pIC50 [3]
12 | CC(C)c1ccc(COc2ccc(-c3c(-c4ccnc(N)n4)nn4c3C(=O)NCC4)cc2)cc1 [Compound 13] | 7.5 | 20 nM | – | – | – | > 10000 nM | –
13 | CC(C)c1ccc(COc2cc(F)c(-c3c(-c4ccncc4)nn4c3C(=O)NCC4)c(F)c2)cc1 [Compound 17] | 6.8 | 501 nM | – | 235 °C | – | > 10000 nM | –
14 | CC(C)c1ccc(COc2ccc(-c3c(-c4ccncc4)nn4c3C(=O)N(CC(=O)O)CC4)cc2)cc1 [Compound 66] | 5.1 | 251 nM | – | – | – | > 10000 nM | –
15 | CC(C)c1ccc(COc2ccc(-c3c(-c4ccncc4)nn4c3C(=O)N(C)CC4)cc2)cc1CCO [Compound 82] | 7.6 | 10 nM | – | – | – | > 10000 nM | 7.3
16 | CC(C)c1ccc(COC2CCN(c3c(-c4ccncc4)nn4c3C(=O)NCC4)CC2)cc1 [Compound 198] | 6.6 | 251 nM | – | – | – | > 10000 nM | –
17 | CC(C)c1ccc(COc2ccc(-c3c(-c4ccncc4)nn4c3C(=O)NCC4)c(F)c2)cc1CCO [Compound 204] | 7.9 | 6.31 nM | – | – | – | > 10000 nM | 7.8
18 | CC(C)c1ccc(COc2ccc(-c3c(-c4ccncc4)nn4c3C(=O)N(CCO)CC4)cn2)cc1 [Compound 212] | 7.3 | 39.8 nM | – | – | – | > 10000 nM | 6.8
19 | CC(C)c1ccc(C(Oc2ccc(-c3c(-c4ccncc4)nn4c3C(=O)NCC4)cc2)C(=O)NCCO)cc1 (stereo not drawn) [Compound 218] | 6.3 | 200 nM | – | – | – | > 10000 nM | –
20 | CC(C)c1ccc(C2CNc3cc(-c4c(-c5ccncc5)nn5c4C(=O)NCC5)cnc3O2)cc1 (stereo not drawn) [Compound 223] | 6.5 | 398 nM | – | – | – | > 10000 nM | –
